Results from patent US9045445B2, “Glycine transporter-1 inhibitors, methods of making them, and uses thereof” (Albany Molecular Research, Inc., priority 2010, dated 2015).
Structures can show the parent of a compound that is named as a salt.

The compounds below were run against T1, glycine transporter-1 (GlyT-1) (Homo sapiens, UniProt P48067) (assay: [14C]glycine uptake assay in JAR cells endogenously expressing GlyT-1 (scintillation proximity)). Details: JAR cells, [14C]glycine 5 μM, 3 hour incubation; read-out: GlyT-1 IC50.
T1 construct: JAR cells (ATCC#HTB-144), which endogenously express GlyT-1; host or cells: JAR human choriocarcinoma cells
T1 sequence (P48067 1-706): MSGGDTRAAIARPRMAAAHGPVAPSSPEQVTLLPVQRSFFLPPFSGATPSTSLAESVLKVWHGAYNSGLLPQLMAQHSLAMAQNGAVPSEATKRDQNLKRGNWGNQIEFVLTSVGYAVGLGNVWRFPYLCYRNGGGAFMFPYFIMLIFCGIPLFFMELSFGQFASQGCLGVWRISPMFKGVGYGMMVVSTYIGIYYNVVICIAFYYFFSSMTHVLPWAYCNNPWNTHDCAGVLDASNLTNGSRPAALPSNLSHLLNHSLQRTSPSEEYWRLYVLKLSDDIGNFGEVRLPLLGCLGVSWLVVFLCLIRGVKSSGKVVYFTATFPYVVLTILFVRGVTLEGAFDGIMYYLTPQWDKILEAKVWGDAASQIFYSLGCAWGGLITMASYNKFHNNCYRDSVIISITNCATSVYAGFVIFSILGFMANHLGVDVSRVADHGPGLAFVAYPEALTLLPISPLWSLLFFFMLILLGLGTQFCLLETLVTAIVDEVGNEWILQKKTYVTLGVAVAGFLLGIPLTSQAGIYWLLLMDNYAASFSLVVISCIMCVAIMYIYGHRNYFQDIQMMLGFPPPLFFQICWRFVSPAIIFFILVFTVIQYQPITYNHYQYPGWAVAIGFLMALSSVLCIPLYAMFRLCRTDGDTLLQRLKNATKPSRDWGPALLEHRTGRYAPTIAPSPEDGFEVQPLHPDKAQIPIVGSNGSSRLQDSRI
Type: cell-based
Protocol: The inhibitory activity of compounds of the invention against the glycine transporter-1 (GlyT-1) can be determined by the following scintillation proximity assay. The potency of each compound was assessed in inhibiting the uptake of radiolabeled glycine ([^14C]glycine) using the human choriocarcinoma cell line, JAR cells (ATCC#HTB-144), which endogenously express GlyT-1. In brief, 50,000 JARS cells were plated per well of tissue culture treated 96-well Cytostar-T plate (PerkinElmer) in RPMI media supplemented with 10% heat inactivated FBS and allowed to attach overnight at 37° C. and 5% CO2. Compounds were serially diluted 3-fold in DMSO generating a nine (9) data point response curve for each compound. Two replicates were performed per determination. The compounds were then diluted into Uptake Buffer (10 mM Hepes, 120 mM NaCl, 2 mM KCl, 1 mM CaCl2 and 1 mM MgCl2, 5 mM Alanine, pH 7.4) with a final DMSO concentration of 0.75% (v/v). Following the overnight incubation, the media was replaced with Uptake Buffer in the presence or absence of diluted compound and pre-incubated at room temperature for 10 minutes prior to the addition of [^14C]glycine at a final concentration of 5 μM. Following a 3 hour incubation period at 37° C. and 5% CO2, the plates were sealed and placed at room temperature in the dark for 15 minutes prior to quantification of incorporated radioactivity using a MicroBeta Trilux scintillation plate reader (PerkinElmer). Data were fit into a four-parameter model to determine the inhibitor concentration at half-maximal response (IC50). The assay window was established by control wells incubated with [^14C]glycine in the presence or absence of 10 mM non-labeled glycine. A dose response curve for a synthesized reference standard was generated on every plate as a positive control.

Compound	IC50 [nM]
CCCS(=O)(=O)N1CCN(C2(CNC(=O)c3c(F)cccc3F)CCCCC2)CC1 [compound 16, 2,6-Difluoro-N-((1-(4-(propylsulfonyl)piperazin-1-yl)cyclohexyl)methyl) benzamide Hydrochloride]	23
CCCS(=O)(=O)N1CCN(C2(CNC(=O)c3ccc(F)cc3Cl)CCC(F)(F)CC2)CC1 [compound 154, 2-Chloro-N-((4,4-difluoro-1-(4-(propylsulfonyl)piperazin-1-yl)cyclohexyl)methyl)-4-fluorobenzamide Hydrochloride]	38
CCS(=O)(=O)N1CCN(C2(CNC(=O)c3c(Cl)cc(Cl)cc3Cl)CCC(F)(F)CC2)CC1 [compound 209, 2,4,6-Trichloro-N-((1-(4-(ethylsulfonyl)piperazin-1-yl)-4,4-difluorocyclohexyl)methyl) benzamide Hydrochloride]	83
CCCS(=O)(=O)N1CCN(C2(C(C)NC(=O)c3c(F)cccc3F)CCC(F)(F)CC2)CC1 (stereo not shown) [compound 196, N-(1-(4,4-Difluoro-1-(4-(propylsulfonyl)piperazin-1-yl)cyclohexyl)ethyl)-2,6-difluorobenzamide Hydrochloride]	3780
CCCS(=O)(=O)N1CCN(C2(CNC(=O)c3ccc(F)cc3C(F)(F)F)CCC(F)(F)CC2)CC1 [compound 148, N-((4,4-Difluoro-1-(4-(propylsulfonyl)piperazin-1-yl)cyclohexyl)methyl)-4-fluoro-2-(trifluoromethyl)benzamide Hydrochloride]	30
CCCS(=O)(=O)N1CCN(C2(CNC(=O)c3c(C)cccc3F)CCC(F)(F)CC2)CC1 [compound 147, N-((4,4-Difluoro-1-(4-(propylsulfonyl)piperazin-1-yl)cyclohexyl)methyl)-2-fluoro-6-methyl-benzamide Hydrochloride]	31
N-((4,4-Difluoro-1-(1-(1- methyl-1H-1,2,3-triazol-4- ylsulfonyl)piperidin-4- yl)cyclohexyl)methyl)-2,4- bis(trifluoromethyl) benzamide [compound 274]	3
CCCS(=O)(=O)N1CCN(C2(CNC(=O)c3ccc(C4CC4)cc3Cl)CCC(F)(F)CC2)CC1 [compound 247, 2-Chloro-4-cyclopropyl-N-((4,4-difluoro-1-(4-(propylsulfonyl)piperazin-1-yl)cyclohexyl)methyl) benzamide Hydrochloride]	37
CCCS(=O)(=O)N1CCN(C2(CNC(=O)c3ccc(C(C)C)cc3)CCCCC2)CC1 [compound 33, 4-Isopropyl-N-((1-(4-(propylsulfonyl)piperazin-1-yl)cyclohexyl)methyl) benzamide Hydrochloride]	488
CCCS(=O)(=O)N1CCN(C2(CNC(=O)c3ccc(Cl)cc3OC(F)F)CCC(F)(F)CC2)CC1 [compound 249, 4-Chloro-N-((4,4-difluoro-1-(4-(propylsulfonyl)piperazin-1-yl)cyclohexyl)methyl)-2-(difluoromethoxy) benzamide Hydrochloride]	37
CCCS(=O)(=O)N1CCN(C2(C(C)NC(=O)c3c(F)cccc3F)CCC(F)(F)CC2)CC1 (stereo not shown) [compound 197, N-(1-(4,4-Difluoro-1-(4-(propylsulfonyl)piperazin-1-yl)cyclohexyl)ethyl)-2,6-difluorobenzamide Hydrochloride]	304
CCCS(=O)(=O)N1CCN(C2(CNC(=O)c3c(C)cccc3C)CCC(F)(F)CC2)CC1 [compound 146, N-((4,4-Difluoro-1-(4-(propylsulfonyl)piperazin-1-yl)cyclohexyl)methyl)-2,6-dimethylbenzamide Hydrochloride]	30
Cn1cnc(S(=O)(=O)N2CCN(C3(CNC(=O)c4c(F)cccc4C(F)(F)F)CCC(F)(F)CC3)CC2)c1 [compound 172, N-((4,4-Difluoro-1-(4-(1-methyl-1H-imidazol-4-ylsulfonyl)piperazin-1-yl)cyclohexyl)methyl)-2-fluoro-6-(trifluoromethyl)benzamide Hydrochloride]	3
O=C(NCC1(N2CCN(S(=O)(=O)N3CCC(F)(F)C3)CC2)CCC(F)(F)CC1)c1ccc(C(F)(F)F)cc1Cl [compound 272, 2-Chloro-N-((1-(4-(3,3-difluoropyrrolidin-1-ylsulfonyl)piperazin-1-yl)-4,4-difluorocyclohexyl)methyl)-4-(trifluoromethyl) benzamide Hydrochloride]	1100
CCCS(=O)(=O)N1CCN(C2(CNC(=O)c3c(F)cccc3OC(F)F)CCC(F)(F)CC2)CC1 [compound 250, N-((4,4-Difluoro-1-(4-(propylsulfonyl)piperazin-1-yl)cyclohexyl)methyl)-2-(difluoromethoxy)-6-fluorobenzamide Hydrochloride]	24
CCS(=O)(=O)N1CCN(C2(CNC(=O)c3c(Cl)ccc(C(F)(F)F)c3Cl)CCC(F)(F)CC2)CC1 [compound 215, 2,6-Dichloro-N-((1-(4-(ethylsulfonyl)piperazin-1-yl)-4,4-difluorocyclohexyl)methyl)-3-(trifluoromethyl) benzamide Hydrochloride]	2460
CCCS(=O)(=O)N1CCN(C2(CNC(=O)c3ccc(Cl)cc3C)CCC(F)(F)CC2)CC1 [compound 153, 4-Chloro-N-((4,4-difluoro-1-(4-(propylsulfonyl)piperazin-1-yl)cyclohexyl)methyl)-2-methylbenzamide Hydrochloride]	69
CCCS(=O)(=O)N1CCN(C2(CNC(=O)c3cccc(C)c3)CCCCC2)CC1 [compound 37, 3-Methyl-N-((1-(4-(propylsulfonyl)piperazin-1-yl)cyclohexyl)methyl) benzamide Hydrochloride]	1140
CCCS(=O)(=O)N1CCN(C2(CNC(=O)c3c(F)cccc3C(F)(F)F)CCC(F)(F)CC2)CC1 [compound 149, N-((4,4-Difluoro-1-(4-(propylsulfonyl)piperazin-1-yl)cyclohexyl)methyl)-2-fluoro-6-(trifluoromethyl)benzamide Hydrochloride]	69
Cn1ccc(S(=O)(=O)N2CCN(C3(CNC(=O)c4ccc(C(F)(F)F)cc4Cl)CCC(F)(F)CC3)CC2)n1 [compound 283, 2-Chloro-N-((4,4-difluoro-1-(4-(1-methyl-1H-pyrazol-3-ylsulfonyl)piperazin-1-yl)cyclohexyl)methyl)-4-(trifluoromethyl)benzamide Hydrochloride]	2410
CCS(=O)(=O)N1CCN(C2(CNC(=O)c3c(F)cc(Cl)cc3Cl)CCC(F)(F)CC2)CC1 [compound 210, 2,4-Dichloro-N-((1-(4-(ethylsulfonyl)piperazin-1-yl)-4,4-difluorocyclohexyl)methyl)-6-fluorobenzamide Hydrochloride]	72
O=C(NCC1(N2CCN(S(=O)(=O)c3cccnc3)CC2)CCC(F)(F)CC1)c1c(F)cccc1F [compound 269, N-((4,4-Difluoro-1-(4-(pyridin-3-ylsulfonyl)piperazin-1-yl)cyclohexyl)methyl)-2,6-difluorobenzamide Hydrochloride]	817
CCCS(=O)(=O)N1CCN(C2(CNC(=O)c3ccc(Cl)cc3)CCCC2)CC1 [compound 73, 4-Chloro-N-((1-(4-(propylsulfonyl)piperazin-1-yl)cyclopentyl)methyl) benzamide Hydrochloride]	1990
Cn1cc(S(=O)(=O)N2CCN(C3(CNC(=O)c4c(Cl)cccc4Cl)CCC(F)(F)CC3)CC2)nn1 [compound 190, 2,6-Dichloro-N-((4,4-difluoro-1-(4-(1-methyl-1H-l,2,3-triazol-4-ylsulfonyl)piperazin-1-yl)cyclohexyl)methyl) benzamide Hydrochloride]	1
Cn1cnc(S(=O)(=O)N2CCN(C3(CNC(=O)c4ccccc4F)CCC(F)(F)CC3)CC2)c1 [compound 175, N-((4,4-Difluoro-1-(4-(1-methyl-1H-imidazol-4-ylsulfonyl)piperazin-1-yl)cyclohexyl)methyl)-2-fluorobenzamide Hydrochloride]	57
